# Experimental data as given in patent publication US12091426B2, “Bifunctional degraders of hematopoietic progenitor kinase and therapeutic uses thereof” (Nurix Therapeutics, Inc., priority 2021, dated 2024).
# Target: T1, HPK1 (Homo sapiens, UniProt Q92918)
# T1 construct: A HiBiT tag was introduced by CRISPR on the N terminus of HPK1 in Jurkat cells; host or cells: Jurkat cells (ATCC TIB-152), monoclonal line with CRISPR knock-in of HiBiT at the endogenous HPK1 locus
# Test: HPK1 Cellular HiBit Degradation Assay
# Type: cell-based
# Conditions: HiBiT HPK1 Jurkat cells, 24 hrs; for DC50: concentration at which 50% of HPK1 was remaining, read-out: DC50 Category; for Dmax: Jurkat, read-out: Dmax Category
# Summary of the method: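 HPK1 levels are read by HiBiT luminescence after 24 h exposure of HiBiT-knock-in Jurkat cells to compound at 10 uM–0.1 nM final (11 points). Relative to DMSO (100%), DC50 is the concentration leaving 50% HPK1 from a variable-slope fit, and Dmax is 100 minus minimum remaining. Viability checked in-plate.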
# [1] = maximum degradation vs DMSO vehicle control
# T1 sequence (Q92918 whole entry): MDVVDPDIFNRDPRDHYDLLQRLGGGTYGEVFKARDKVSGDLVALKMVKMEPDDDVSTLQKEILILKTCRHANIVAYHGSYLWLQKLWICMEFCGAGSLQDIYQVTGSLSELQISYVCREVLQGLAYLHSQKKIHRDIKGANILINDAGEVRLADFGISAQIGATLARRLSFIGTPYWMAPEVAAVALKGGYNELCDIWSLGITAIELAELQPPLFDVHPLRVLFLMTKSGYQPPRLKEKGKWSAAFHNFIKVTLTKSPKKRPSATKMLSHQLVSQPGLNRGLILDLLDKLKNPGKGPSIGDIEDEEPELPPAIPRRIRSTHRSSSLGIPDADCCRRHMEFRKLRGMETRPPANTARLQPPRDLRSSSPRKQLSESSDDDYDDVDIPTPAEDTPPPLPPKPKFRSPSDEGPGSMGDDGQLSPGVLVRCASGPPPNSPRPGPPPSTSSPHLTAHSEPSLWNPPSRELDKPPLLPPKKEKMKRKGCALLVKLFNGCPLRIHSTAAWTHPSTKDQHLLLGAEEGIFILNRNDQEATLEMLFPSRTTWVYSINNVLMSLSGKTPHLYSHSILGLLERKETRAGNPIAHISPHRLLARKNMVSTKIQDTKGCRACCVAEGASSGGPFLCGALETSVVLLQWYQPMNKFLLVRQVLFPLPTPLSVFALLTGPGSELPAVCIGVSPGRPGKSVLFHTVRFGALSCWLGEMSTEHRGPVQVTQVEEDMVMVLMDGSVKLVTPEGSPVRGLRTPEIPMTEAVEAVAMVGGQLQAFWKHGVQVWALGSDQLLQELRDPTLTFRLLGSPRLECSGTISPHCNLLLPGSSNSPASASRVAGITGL
Compound,DC50,Dmax [1],Dmax Category [1]
"CC(C)n1cnc2cc(-c3ccc4c(c3)N(C3CC(N5CCCCC5)C3)C(=O)C43CCN(C(=O)C4CCN(C(=O)C5CCN(c6ccc7c(c6)C(=O)N(C6CCC(=O)NC6=O)C7=O)CC5)CC4)CC3)nc(Nc3ccncc3F)c21 (racemic) [Example 88, 2-[(3RS)-2,6-dioxopiperidin-3-yl]-5-(4-{4-[(6-{4-[(3-Fluoropyridin-4-yl)amino]-3-(propan-2-yl)-3H-imidazo[4,5-c]pyridin-6-yl}-2-oxo-1-[(1S,3S)-3-(piperidin-1-yl)cyclobutyl]-1,2-dihydrospiro[indole-3,4′-piperidin]-1′-yl)carbonyl]piperidine-1-carbonyl}piperidin-1-yl)-2,3-dihydro-1H-isoindole-1,3-dione]",< 100 nM,,C (C: >50%-<70%)
"CC(C)n1cnc2cc(-c3ccc4c(c3)N([C@H]3C[C@@H](N5CCCCC5)C3)C(=O)C43CCN(C(=O)C4CC5CCC(C4)N5C(=O)C4CCN(c5ccc(C6CCC(=O)NC6=O)cc5)CC4)CC3)nc(NC3CC3)c21 (mixture of isomers) [Example 289, (3RS)-3-(4-{4-[3-({6-[4-(cyclopropylamino)-3-(propan-2-yl)-3H-imidazo[4,5-c]pyridin-6-yl]-2-oxo-1-[(1S,3S)-3-(piperidin-1-yl)cyclobutyl]-1,2-dihydrospiro[indole-3,4′-piperidin]-1′-yl}carbonyl)-8-azabicyclo[3.2.1]Octane-8-carbonyl]piperidin-1-yl}phenyl)piperidine-2,6-dione]",< 100 nM,70 to 85%,
"CC(C)n1cnc2cc(-c3ccc4c(c3)N([C@H]3C[C@@H](N5CCCCC5)C3)C(=O)C43CCN(C(=O)c4ccc(C(=O)N5CCN(c6ccc7c(c6)C(=O)N(C6CCC(=O)NC6=O)C7=O)CC5)cc4)CC3)nc(Nc3ccncc3F)c21 (mixture of isomers) [Example 42, 2-[(3RS)-2,6-dioxopiperidin-3-yl]-5-(4-{4-[(6-{4-[(3-Fluoropyridin-4-yl)amino]-3-(propan-2-yl)-3H-imidazo[4,5-c]pyridin-6-yl}-2-oxo-1-[(1S,3S)-3-(piperidin-1-yl)cyclobutyl]-1,2-dihydrospiro[indole-3,4′-piperidin]-1′-yl)carbonyl]benzoyl}piperazin-1-yl)-2,3-dihydro-1H-isoindole-1,3-dione]",500 to 1000 nM,50 to 70%,
"CC(C)n1cnc2cc(-c3ccc4c(c3)N([C@H]3C[C@@H](N5CCCCC5)C3)C(=O)C43CCN(C(=O)C4CCN(C(=O)[C@H]5CCN(c6ccc(C7CCC(=O)NC7=O)cn6)C5)CC4)CC3)nc(Nc3ccccc3F)c21 (mixture of isomers) [Example 65, (3RS)-3-{6-[(3S)-3-{4-[(6-{4-[(2-fluorophenyl)amino]-3-(propan-2-yl)-3H-imidazo[4,5-c]pyridin-6-yl}-2-oxo-1-[(1S,3S)-3-(piperidin-1-yl)cyclobutyl]-1,2-dihydrospiro[indole-3,4′-piperidin]-1′-yl)carbonyl]piperidine-1-carbonyl}pyrrolidin-1-yl]pyridin-3-yl}piperidine-2,6-dione]",100 to 500 nM,70 to 85%,
"CC(C)n1cnc2cc(-c3ccc4c(c3)N([C@H]3C[C@@H](N5CCCCC5)C3)C(=O)C43CCN(C(=O)C4(C)CCN(C(=O)C5CCN(c6ccc(C7CCC(=O)NC7=O)cn6)CC5)CC4)CC3)nc(N3CCCC3)c21 (stereo partly drawn) [Example 170, 3-(6-{4-[4-methyl-4-({2-oxo-6-[3-(propan-2-yl)-4-(pyrrolidin-1-yl)-3H-imidazo[4,5-c]pyridin-6-yl]-1-[(1S,3S)-3-(piperidin-1-yl)cyclobutyl]-1,2-dihydrospiro[indole-3,4′-piperidin]-1′-yl}carbonyl)piperidine-1-carbonyl]piperidin-1-yl}pyridin-3-yl)piperidine-2,6-dione]",100 to 500 nM,50 to 70%,
"CC(C)n1cnc2cc(-c3ccc4c(c3)N([C@H]3C[C@@H](N5CCCCC5)C3)C(=O)C43CCN(C(=O)c4ccc(C(=O)N5CCN(c6ccc(C7CCC(=O)NC7=O)cn6)C[C@H]5C)cc4)CC3)nc(Nc3ccccc3F)c21 (mixture of isomers) [Example 100, (3RS)-3-{6-[(3R)-4-{4-[(6-{4-[(2-fluorophenyl)amino]-3-(propan-2-yl)-3H-imidazo[4,5-c]pyridin-6-yl}-2-oxo-1-[(1S,3S)-3-(piperidin-1-yl)cyclobutyl]-1,2-dihydrospiro[indole-3,4′-piperidin]-1′-yl)carbonyl]benzoyl}-3-methylpiperazin-1-yl]pyridin-3-yl}piperidine-2,6-dione]",100 to 500 nM,70 to 85%,

# Continued, in another order:
DC50,Dmax [1],Compound,Dmax Category [1]
100 to 500 nM,50 to 70%,"CC(C)n1cnc2cc(-c3ccc4c(c3)N([C@H]3C[C@@H](N5CCCCC5)C3)C(=O)C43CCN(C(=O)C[C@@H]4CCCN(C(=O)C5CCN(c6ccc(C7CCC(=O)NC7=O)cn6)CC5)C4)CC3)nc(NC3CC3)c21 (mixture of isomers) [Example 298, (3RS)-3-(6-{4-[(3S)-3-(2-{6-[4-(cyclopropylamino)-3-(propan-2-yl)-3H-imidazo[4,5-c]pyridin-6-yl]-2-oxo-1-[(1S,3S)-3-(piperidin-1-yl)cyclobutyl]-1,2-dihydrospiro[indole-3,4′-piperidin]-1′-yl}-2-oxoethyl)piperidine-1-carbonyl]piperidin-1-yl}pyridin-3-yl)piperidine-2,6-dione]",
< 100 nM,> 85%,"CC(C)n1cnc2cc(-c3ccc4c(c3)N([C@H]3C[C@@H](N5CCCCC5)C3)C(=O)C43CCN(C(=O)C4(C)CCN(C(=O)C5CCN(c6ccc(C7CCC(=O)NC7=O)cn6)CC5)CC4)CC3)nc(OC3CC3)c21 (stereo partly drawn) [Example 178, 3-(6-{4-[4-({6-[4-cyclopropoxy-3-(propan-2-yl)-3H-imidazo[4,5-c]pyridin-6-yl]-2-oxo-1-[(1S,3S)-3-(piperidin-1-yl)cyclobutyl]-1,2-dihydrospiro[indole-3,4′-piperidin]-1′-yl}carbonyl)-4-methylpiperidine-1-carbonyl]piperidin-1-yl}pyridin-3-yl)piperidine-2,6-dione]",
< 100 nM,> 85%,"CC(C)n1cnc2cc(-c3ccc4c(c3)N([C@H]3C[C@@H](N5CCCCC5)C3)C(=O)C43CCN(C(=O)C4(C)CCN(C(=O)C5CCN(c6ccc(C7CCC(=O)NC7=O)cn6)CC5)CC4)CC3)nc(N[C@H]3C[C@@H](C#N)C3)c21 (stereo partly drawn) [Example 174, (1S,3S)-3-({6-[1′-(1-{1-[5-(2,6-dioxopiperidin-3-yl)pyridin-2-yl]piperidine-4-carbonyl}-4-methylpiperidine-4-carbonyl)-2-oxo-1-[(1S,3S)-3-(piperidin-1-yl)cyclobutyl]-1,2-dihydrospiro-[indole-3,4′-piperidin]-6-yl]-3-(propan-2-yl)-3H-imidazo[4,5-c]pyridin-4-yl}amino)cyclobutane-1-carbonitrile]",
< 100 nM,> 85%,"CC(C)n1cnc2cc(-c3ccc4c(c3)N([C@H]3C[C@@H](N5CCCCC5)C3)C(=O)C43CCN(C(=O)[C@@H]4CCN(C(=O)[C@H]5CC[C@H](Nc6ccc(C7CCC(=O)NC7=O)cc6)CC5)C4)CC3)nc(Nc3ccccc3F)c21 (mixture of isomers) [Example 3, (3RS)-3-(4-{[(1R,4R)-4-[(3R)-3-[(6-{4-[(2-fluorophenyl)amino]-3-(propan-2-yl)-3H-imidazo[4,5-c]pyridin-6-yl}-2-oxo-1-[(1S,3S)-3-(piperidin-1-yl)cyclobutyl]-1,2-dihydrospiro[indole-3,4′-piperidin]-1′-yl)carbonyl]pyrrolidine-1-carbonyl]cyclohexyl]amino}phenyl)piperidine-2,6-dione]",
< 100 nM,70 to 85%,"CC(C)n1cnc2cc(-c3ccc4c(c3)N([C@H]3C[C@@H](N5CCCCC5)C3)C(=O)C43CCN(C(=O)C4CCN(C(=O)C5CCN(c6ccc(C7CCC(=O)NC7=O)nc6)CC5)CC4)CC3)nc(Nc3ccncc3F)c21 (mixture of isomers) [Example 82, (3RS)-3-[5-(4-{4-[(6-{4-[(3-fluoropyridin-4-yl)amino]-3-(propan-2-yl)-3H-imidazo[4,5-c]pyridin-6-yl}-2-oxo-1-[(1S,3S)-3-(piperidin-1-yl)cyclobutyl]-1,2-dihydrospiro[indole-3,4′-piperidin]-1′-yl)carbonyl]piperidine-1-carbonyl}piperidin-1-yl)pyridin-2-yl]piperidine-2,6-dione]",
< 100 nM,> 85%,"CC(C)n1cnc2cc(-c3ccc4c(c3)N([C@H]3C[C@@H](N5CCCCC5)C3)C(=O)C43CCN(C(=O)CC4CCN(C(=O)[C@H]5CC[C@H](Oc6ccc(C7CCC(=O)NC7=O)cn6)CC5)CC4)CC3)nc(NC3CC3)c21 (stereo partly drawn) [Example 161, 3-(6-{[(1R,4R)-4-[4-(2-{6-[4-(cyclopropylamino)-3-(propan-2-yl)-3H-imidazo[4,5-c]pyridin-6-yl]-2-oxo-1-[(1S,3S)-3-(piperidin-1-yl)cyclobutyl]-1,2-dihydrospiro[indole-3,4′-piperidin]-1′-yl}-2-oxoethyl)piperidine-1-carbonyl]cyclohexyl]oxy}pyridin-3-yl)piperidine-2,6-dione]",
< 100 nM,70 to 85%,"CC(C)n1cnc2cc(-c3ccc4c(c3)N([C@H]3C[C@@H](N5CCCCC5)C3)C(=O)C43CCN(C(=O)[C@@H]4C[C@@H]5C[C@H]4CN5C(=O)C4CCN(c5ccc(C6CCC(=O)NC6=O)cn5)CC4)CC3)nc(NC3CC3)c21 (mixture of isomers) [Example 265, (3RS)-3-(6-{4-[(S,4R,5R)-5-({6-[4-(cyclopropylamino)-3-(propan-2-yl)-3H-imidazo[4,5-c]pyridin-6-yl]-2-oxo-1-[(1S,3S)-3-(piperidin-1-yl)cyclobutyl]-1,2-dihydrospiro[indole-3,4′-piperidin]-1′-yl}carbonyl)-2-azabicyclo[2.2.1]heptane-2-carbonyl]piperidin-1-yl}pyridin-3-yl)piperidine-2,6-dione]",
